According to patent publication US20230167437A1, “COMPOSITIONS FOR TREATING CANCER WITH KRAS MUTATIONS AND USES THEREOF” (Aadigen, LLC, priority 2020, published 2023):

Legend:
pAKT = test: Downstream signaling proteins quantified by ELISA on tumors; format: in vivo, mice; conditions: PANC1 tumors
Description: (§1) The specificity of gRNA35A5 G12D and gRNA35T3 G12V for their targets in PANC-1 and SW403 tumors cells, have been analyzed. Female nude mice 6-weeks of age were injected with either Human pancreatic carcinoma cell (Panc1-Luc) containing the 35G>A mutation or Human colorectal cancer cells (SW403) containing 35G>T KRAS mutation (20×10^6 cells in 200 μl PBS). A period of 2 weeks was allowed for tumor development before the beginning of the experiments.
(§2) Animal were injected on day 1 and day 7. Mice received IV injection of 100 μl ADGN/mRNA complex in 5% glucose. At Day 50, animals were sacrificed and tissues/tumors were harvested. At Day 50 post treatment, level of expression of housekeeping genes; glyceraldehyde-3-phosphate dehydrogenase (GAPDH), HPRT-1 and mitochondrial ATP synthase 6 (mATPsy6) was evaluated by PCR in the tumor, liver, spleen and lung.
(§3) We analyzed the level of KRAS G12D or KRAS G12V gene editing by deep sequencing in PANC1 (FIG. 14A) and SW403 (FIG. 14B) tumors, respectively. […] The level of downstream signaling proteins (pAKT and pERK) were quantified by ELISA on PANC1 and SW403 tumors. […] Given that targeting KRAS using Cas9/sgRNA can induce various secondary mutations at or near the target sites, deep sequencing shown similar level of secondary oncogenic mutations (G12D, G12V, G12C, G13D, G12R, G12A, and G12S) in KRAS-mutant cancer cells (SW403/PANC-1) or cells containing wild-type KRAS (HT29) either in vitro or in vivo.

pERK = test: as above; format: in vivo, mice; conditions: PANC1 tumors
Description: as §1, §2, §3

[1] = system: PANC1, PK1, LS513 and PK-45H cells; test: Cell proliferation over 5 days (CellTiter Glow); format: cell-based, human
Description: Transfection protocol. The following protocols are reported for 24/48/96 well plate format transfection. Cells should be trypsinized and seeded a day prior transfection Cells were cultured in Dulbecco's Modified Eagle's Medium (DMEM), supplemented with 2 mM glutamine, 1% antibiotics (streptomycin 10,000 μg/mL, penicillin, 10,000 IU/mL) and 10% (w/v) foetal calf serum (FCS), at 37° C. in a humidified atmosphere containing 5% CO2. 96 well plates seeded with 50,000 cells, the day prior transfection, grown to 60-80% confluence and set up to be at around 70% confluence at the day of transfection. Before transfection, cells are washed twice with DMEM (without FBS and pen/strep) (100 μl/well). Cells were then overlaid with 25 μl of complex solution, mixed gently and incubated for 10 min at 37° C.+5% CO2. 50 μl of fresh DMEM (without FBS and Antibiotics) was added and cells were incubated for 2 h at 37° C.+5% CO2 (time of exposure can be adjusted based on sensitivity of the cells). 250 μL of DMEM (containing 10% FCS and 1% antibiotics) were then added without removing the overlay of ADGN peptide/mRNA complexes. Cells were returned to the incubator (37° C., 5% CO2) and analyzed 48 hours to 72 hours post transfection.
Nine different gRNAs targeting KRAS 35G>A mutant G12D (gRNA35A1, gRNA35A2, gRNA35A3, gRNA35A4, gRNA35A5, gRNA35A6; gRNA35A7, gRNA35A8, gRNA35A9) were evaluated on LS513, Panc1, PK-45H, and PK1 cancer cells harboring G12D KRAS mutation. Cas9 mRNA (0.1 μg) and gRNA (0.2 μg) were associated with ADGN-peptide at molar ratio 20/1 (peptide/nucleic acid). LS513, Panc1, PK-45H, PK1, HS-68 and HT-29 cells were cultured in 48 well plate format and treated with free mRNACas9-gRNA, or ADGN/mRNACas9:gRNA complex. Indel frequencies at the endogenous target sequences was evaluated 72 hours after transfection by either T7E1 method or deep sequencing. Cell proliferation was analyzed over a period of 5 days using CellTiter Glow kits on GlowMax (Promega).

wild type KRAS = test: Indel frequencies at the endogenous target sequences (T7E1 / deep sequencing) after ADGN/Cas9 mRNA/gRNA transfection; format: cell-based, human; conditions: deep sequencing, 72 hours after transfection, Cas9 mRNA 0.1 μg, gRNA 0.2 μg
How it was run: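 Cas9 mRNA and gRNA complexed with ADGN peptide (20:1 molar ratio) and transfected into KRAS-mutant (G12V or G12D) and other cancer cell lines in 48-well format, 2 h exposure in serum-free DMEM. Indels at endogenous target sites measured 72 h post-transfection by T7E1 or deep sequencing.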

For “AGT TGG AGC TGA TGG CGT (guide AGTTGGAGCTGATGGCGT; chemistry not given here) [gRNA35A5, sgRNA target KRAS G12D mutation (35G>A); PAM AGG]”, the “level of p-AKT” value (pAKT) was “significantly reduced”, the “level of p-ERK” value (pERK) was “significantly reduced” and the “fold more efficient than gRNA35A2 (cell proliferation)” value [1] was 2 fold. The “fold more efficient than gRNA35A6 (cell proliferation)” value [1] was 3 fold, the “inhibition of proliferation or survival (FIG. 2B)” value ([1]; PANC1, PK1, LS513, PK-45H vs HT29 or HS-68 cells harboring KRAS WT) was “specifically inhibit proliferation or survival of PANC1, PK1, LS513 and PK-45H cells” and the cell proliferation blocked ([1]; PANC1, PK1, LS513 and PK-45H cells, 5 days) was 80%. It also gave an indel frequencies (wild type KRAS; HS68 cells (WT KRAS)) of 2 ± 1% and an indel frequencies (wild type KRAS; HT-29 cells (WT KRAS)) of 2 ± 1%.
